ChEMBL document CHEMBL1122817, “Synthesis and biological activity of substituted [[3(S)-(acylamino)-2-oxo-1-azetidinyl]oxy]acetic acids. A new class of heteroatom-activated beta-lactam antibiotics” (1985)

Key:
[1] = test system: Acinetobacter calcoaceticus; test: Minimum inhibitory concentration against Acinetobacter calcoaceticus AC12; format: functional
[2] = test system: Geobacillus stearothermophilus; test: Inhibitory activity against Bacillus Stearothermophilus C451 at 10 mg/mL concentration using Agar disk plate assay; format: functional
Bacillus subtilis [3] = test: Inhibitory activity against Bacillus Subtilis X12 at 10 mg/mL concentration using Agar disk plate assay; format: functional
Bacillus subtilis [4] = test: Inhibitory activity against Bacillus Subtilis X12M at 10 mg/mL concentration using Agar disk plate assay; format: functional
Citrobacter freundii = test: Minimum inhibitory concentration against Citrobacter freundii CF17; format: functional
Escherichia coli [5] = test: Minimum inhibitory concentration against Escherichia coli N10; format: functional
Escherichia coli [6] = test: Minimum inhibitory concentration against Escherichia coli TEM; format: functional
Klebsiella aerogenes [7] = test: Minimum inhibitory concentration against Enterobacter aerogenes C32; format: functional
Escherichia coli [8] = test: Inhibitory activity against Escherichia coli X580 at 10 mg/mL concentration using Agar disk plate assay; format: functional
Escherichia coli [9] = test: Inhibitory activity against Escherichia coli X161 at 10 mg/mL concentration using Agar disk plate assay; format: functional
Escherichia coli [10] = test: Inhibitory activity against Escherichia coli X161M at 10 mg/mL concentration using Agar disk plate assay; format: functional
Enterobacter cloacae [11] = test: Minimum inhibitory concentration against Enterobacter cloacae 265A; format: functional
Enterobacter cloacae [12] = test: Minimum inhibitory concentration against Enterobacter cloacae EB5; format: functional
Haemophilus influenzae [13] = test: Minimum inhibitory concentration against Haemophilus influenza 76; format: functional
Haemophilus influenzae [14] = test: Minimum inhibitory concentration against Haemophilus influenza C.L; format: functional
Klebsiella pneumoniae [15] = test: Minimum inhibitory concentration against Klebsiella pneumoniae KAE; format: functional
Klebsiella pneumoniae [16] = test: Minimum inhibitory concentration against Klebsiella pneumoniae X26; format: functional
Klebsiella pneumoniae [17] = test: Minimum inhibitory concentration against Klebsiella pneumoniae X68; format: functional
Morganella morganii = test: Minimum inhibitory concentration against Proteus morganii PR15; format: functional
Pseudomonas aeruginosa [18] = test: Minimum inhibitory concentration against Pseudomonas aeruginosa (4 strains); format: functional
Proteus vulgaris = test: Inhibitory activity against Proteus vulgaris X45 at 10 mg/mL concentration using Agar disk plate assay; format: functional
Pseudomonas aeruginosa [19] = test: Inhibitory activity against Pseudomonas aeruginosa X48 at 10 mg/mL concentration using Agar disk plate assay; format: functional
Ralstonia solanacearum = test: Inhibitory activity against Pseudomonas solanacearum X185 at 10 mg/mL concentration using Agar disk plate assay; format: functional
Proteus inconstans = test: Minimum inhibitory concentration against Proteus inconstans PR33; format: functional; conditions: Providencia alcalifaciens
Providencia rettgeri = test: Minimum inhibitory concentration against Proteus rettgeri C24; format: functional
Salmonella typhi [20] = test: Minimum inhibitory concentration against Salmonella typhi 1335; format: functional, Salmonella enterica subsp. enterica serovar Typhi; conditions: Salmonella enterica
Salmonella typhi [21] = test: Minimum inhibitory concentration against Salmonella typhi X514; format: functional, Salmonella enterica subsp. enterica serovar Typhi; conditions: Salmonella enterica
Micrococcus luteus = test: Inhibitory activity against Sarcina lutea X186 at 10 mg/mL concentration using Agar disk plate assay; format: functional
[22] = test system: Salmonella enterica subsp. enterica serovar Gallinarum; test: Inhibitory activity against Salmonella gallinarum X142 at 10 mg/mL concentration using Agar disk plate assay; format: functional
Serratia marcescens [23] = test: Minimum inhibitory concentration against Serratia marcescens SE3; format: functional
Staphylococcus aureus [24] = test: Inhibitory activity against Staphylococcus aureus X1 at 10 mg/mL concentration using Agar disk plate assay; format: functional
Serratia marcescens [25] = test: Inhibitory activity against Serratia marcescens X99 at 10 mg/mL concentration using Agar disk plate assay; format: functional
[26] = test system: Staphylococcus epidermidis; test: Minimum inhibitory concentration against Staphylococcus epidermidis (2 strains); format: functional
Streptococcus pyogenes = test: Minimum inhibitory concentration against Streptococcus pyogenes C203; format: functional
Streptococcus pneumoniae = test: Minimum inhibitory concentration against Streptococcus pneumoniae Park I; format: functional
Streptococcus = test: Minimum inhibitory concentration against Streptococcus sp. Group D (2 strains); format: functional
Staphylococcus aureus [27] = test: Minimum inhibitory concentration against Staphylococcus aureus (4 strains); format: functional
Klebsiella aerogenes [28] = test: Minimum inhibitory concentration against Enterobacter aerogenes EB 17; format: functional
Escherichia coli [29] = test: Minimum inhibitory concentration against Escherichia coli EC14; format: functional
Serratia marcescens [30] = test: Minimum inhibitory concentration against Serratia marcescens X99; format: functional

SMILES: CO/N=C(\C(=O)N[C@@H]1C(=O)N(OCC(=O)[O-])[C@H]1C)c1csc(N)n1.[K+]
- MIC [1]: > 64 µg/mL
- Zone of inhibition [2]: 24 mm
- Zone of inhibition (Bacillus subtilis [3]): 13 mm
- Zone of inhibition (Bacillus subtilis [4]): 19 mm
- MIC (Citrobacter freundii): 2 µg/mL
- MIC (Escherichia coli [5]): 0.25 µg/mL
- MIC (Escherichia coli [6]): 0.5 µg/mL
- MIC (Klebsiella aerogenes [7]): 0.25 µg/mL
- Zone of inhibition (Escherichia coli [8]): 56 mm
- Zone of inhibition (Escherichia coli [9]): 35 mm
- Zone of inhibition (Escherichia coli [10]): 44 mm
- MIC (Enterobacter cloacae [11]): > 64 µg/mL
- MIC (Enterobacter cloacae [12]): 1 µg/mL
- MIC (Haemophilus influenzae [13]): 1 µg/mL
- MIC (Haemophilus influenzae [14]): 1 µg/mL
- MIC (Klebsiella pneumoniae [15]): 32 µg/mL
- MIC (Klebsiella pneumoniae [16]): 0.25 µg/mL
- MIC (Klebsiella pneumoniae [17]): 0.25 µg/mL
- MIC (Morganella morganii): 2 µg/mL
- MIC (Pseudomonas aeruginosa [18]): > 64 µg/mL
- Zone of inhibition (Proteus vulgaris): 36 mm
- Zone of inhibition (Pseudomonas aeruginosa [19]): 15 mm
- Zone of inhibition (Ralstonia solanacearum): 20 mm
- MIC (Proteus inconstans): 0.125 µg/mL
- MIC (Providencia rettgeri): 0.125 µg/mL
- MIC (Salmonella typhi [20]): 0.25 µg/mL
- MIC (Salmonella typhi [21]): 0.125 µg/mL
- Zone of inhibition (Micrococcus luteus): 22 mm
- Zone of inhibition [22]: 30 mm
- MIC (Serratia marcescens [23]): 1 µg/mL
- Zone of inhibition (Staphylococcus aureus [24]): 19 mm
- Zone of inhibition (Serratia marcescens [25]): 33 mm
- MIC [26]: > 64 µg/mL
- MIC (Streptococcus pyogenes): 16 µg/mL
- MIC (Streptococcus pneumoniae): 32 µg/mL
- MIC (Streptococcus): > 64 µg/mL
- MIC (Staphylococcus aureus [27]): > 64 µg/mL
- MIC (Klebsiella aerogenes [28]): 0.25 µg/mL
- MIC (Escherichia coli [29]): 0.25 µg/mL
- MIC (Serratia marcescens [30]): 0.5 µg/mL

SMILES: C[C@H]1[C@H](NC(=O)Cc2csc(N)n2)C(=O)N1OCC(=O)[O-].[K+]
- Zone of inhibition (Bacillus subtilis [3]): 12 mm
- Zone of inhibition (Bacillus subtilis [4]): 21 mm
- Zone of inhibition (Escherichia coli [8]): 36 mm
- Zone of inhibition (Escherichia coli [9]): 24 mm
- Zone of inhibition (Escherichia coli [10]): 25 mm
- Zone of inhibition (Proteus vulgaris): 19 mm
- Zone of inhibition (Micrococcus luteus): 15 mm
- Zone of inhibition [22]: 22 mm
- Zone of inhibition (Staphylococcus aureus [24]): 18 mm
- Zone of inhibition (Serratia marcescens [25]): 23 mm

SMILES: O=C(O)CON1C[C@H](NC(=O)Cc2ccccc2)C1=O
- Zone of inhibition (Bacillus subtilis [3]): 16 mm
- Zone of inhibition (Bacillus subtilis [4]): 20 mm
- Zone of inhibition (Escherichia coli [8]): 11 mm
- Zone of inhibition (Proteus vulgaris): 10 mm
- Zone of inhibition (Micrococcus luteus): 23 mm
- Zone of inhibition (Staphylococcus aureus [24]): 23 mm

SMILES: C[C@H]1[C@H](NC(=O)Cc2ccccc2)C(=O)N1OCC(=O)O
- Zone of inhibition (Bacillus subtilis [3]): 11 mm
- Zone of inhibition (Bacillus subtilis [4]): 18 mm
- Zone of inhibition (Escherichia coli [8]): 26 mm
- Zone of inhibition (Proteus vulgaris): 10 mm
- Zone of inhibition (Micrococcus luteus): 23 mm
- Zone of inhibition (Staphylococcus aureus [24]): 13 mm
